Test results taken from PubChem BioAssay (NCI).
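Briefly, cells in 96-well plates were exposed to five compound concentrations for 48 h, and endpoints were estimated by linear interpolation. The concentration for 50% growth inhibition is given as GI50. At the TGI there is no net growth.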

Key:
Experiment in all cases: inhibition of tumour cell growth, NCI panel, 48 h
MDA-MB-435 = system: MDA-MB-435
MDA-MB-468 breast = system: MDA-MB-468 breast
SK-MEL-28 melanoma = system: SK-MEL-28 melanoma
HS 578T breast = system: HS 578T breast
NCI-H460 lung = system: NCI-H460 lung
CAKI-1 renal = system: CAKI-1 renal
T-47D breast = system: T-47D breast
K-562 leukemia = system: K-562 leukemia
OVCAR-4 ovarian = system: OVCAR-4 ovarian
DU-145 prostate = system: DU-145 prostate
HCT-116 colon = system: HCT-116 colon
SR leukemia = system: SR leukemia
CCRF-CEM leukemia = system: CCRF-CEM leukemia
M14 melanoma = system: M14 melanoma
NCI-H23 lung = system: NCI-H23 lung
EKVX NSCLC = system: EKVX NSCLC
SN12C renal = system: SN12C renal
OVCAR-3 ovarian = system: OVCAR-3 ovarian
HT29 colon = system: HT29 colon
HOP-92 NSCLC = system: HOP-92 NSCLC
MALME-3M melanoma = system: MALME-3M melanoma
COLO 205 colon = system: COLO 205 colon
A549 NSCLC = system: A549 NSCLC
HOP-62 NSCLC = system: HOP-62 NSCLC
SNB-19 CNS = system: SNB-19 CNS
ACHN renal = system: ACHN renal
NCI/ADR-RES ovarian = system: NCI/ADR-RES ovarian
SK-OV-3 ovarian = system: SK-OV-3 ovarian
UACC-257 melanoma = system: UACC-257 melanoma
NCI-H226 lung = system: NCI-H226 lung
MOLT-4 leukemia = system: MOLT-4 leukemia
U251 CNS = system: U251 CNS
OVCAR-5 ovarian = system: OVCAR-5 ovarian
SF-268 CNS = system: SF-268 CNS
SW-620 colon = system: SW-620 colon
RXF 393 renal = system: RXF 393 renal
IGROV1 ovarian = system: IGROV1 ovarian
SK-MEL-5 melanoma = system: SK-MEL-5 melanoma
UACC-62 melanoma = system: UACC-62 melanoma
LOX IMVI melanoma = system: LOX IMVI melanoma
SF-295 CNS = system: SF-295 CNS
RPMI-8226 leukemia = system: RPMI-8226 leukemia
TK-10 renal = system: TK-10 renal
MCF7 breast = system: MCF7 breast
HL-60(TB) leukemia = system: HL-60(TB) leukemia
NCI-H522 lung = system: NCI-H522 lung
A498 renal = system: A498 renal
OVCAR-8 ovarian = system: OVCAR-8 ovarian
PC-3 prostate = system: PC-3 prostate
KM12 colon = system: KM12 colon
BT-549 breast = system: BT-549 breast
SF-539 CNS = system: SF-539 CNS
786-0 renal = system: 786-0 renal
HCT-15 colon = system: HCT-15 colon
HCC-2998 colon = system: HCC-2998 colon

## CC[C@]12C=CCN3CC[C@@]4(c5ccc(OC)cc5N(C)[C@H]4[C@@](O)(C(=O)OC)[C@@H]1OC(=O)CCCC[P+](C1CCCCC1)(C1CCCCC1)C1CCCCC1)[C@@H]32
MDA-MB-435
  GI50: 2620 nM
  TGI: 10.7 µM
MDA-MB-468 breast
  GI50: 378 nM
  TGI: 1540 nM
SK-MEL-28 melanoma
  GI50: 1380 nM
  TGI: 5.25 µM
HS 578T breast
  GI50: 2610 nM
  TGI: 8.67 µM
NCI-H460 lung
  GI50: 2710 nM
  TGI: 12.2 µM
CAKI-1 renal
  GI50: 16.7 µM
  TGI: 30.6 µM
T-47D breast
  GI50: 920 nM
  TGI: 11.2 µM
K-562 leukemia
  GI50: 983 nM
  TGI: 16.2 µM
OVCAR-4 ovarian
  GI50: 2730 nM
  TGI: 13.8 µM
DU-145 prostate
  GI50: 3.65 µM
  TGI: 14.8 µM
HCT-116 colon
  GI50: 2940 nM
  TGI: 12 µM
SR leukemia
  GI50: 1390 nM
  TGI: 5.36 µM
CCRF-CEM leukemia
  GI50: 2550 nM
  TGI: 10.5 µM
M14 melanoma
  GI50: 2200 nM
  TGI: 12 µM
NCI-H23 lung
  GI50: 2340 nM
  TGI: 8.99 µM
EKVX NSCLC
  GI50: 3.13 µM
  TGI: 16.2 µM
SN12C renal
  GI50: 2770 nM
  TGI: 9.91 µM
OVCAR-3 ovarian
  GI50: 1930 nM
  TGI: 10.9 µM
HT29 colon
  GI50: 1430 nM
  TGI: 3.88 µM
HOP-92 NSCLC
  GI50: 1020 nM
  TGI: 3.9 µM
MALME-3M melanoma
  GI50: 1630 nM
  TGI: 3.7 µM
COLO 205 colon
  GI50: 377 nM
  TGI: 1230 nM
A549 NSCLC
  GI50: 3.13 µM
  TGI: 13.1 µM
HOP-62 NSCLC
  GI50: 3.9 µM
  TGI: 13.8 µM
SNB-19 CNS
  GI50: 1920 nM
  TGI: 11.3 µM
ACHN renal
  GI50: 16 µM
  TGI: 29.6 µM
NCI/ADR-RES ovarian
  GI50: 56.5 µM
  TGI: > 100 µM
SK-OV-3 ovarian
  GI50: 2280 nM
  TGI: 6.94 µM
UACC-257 melanoma
  GI50: 1570 nM
  TGI: 3.9 µM
NCI-H226 lung
  GI50: 4.41 µM
  TGI: 17.9 µM
MOLT-4 leukemia
  GI50: 1720 nM
  TGI: 7.9 µM
U251 CNS
  GI50: 639 nM
  TGI: 12.4 µM
OVCAR-5 ovarian
  GI50: 3.19 µM
  TGI: 12.1 µM
SF-268 CNS
  GI50: 3.17 µM
  TGI: 12.9 µM
SW-620 colon
  GI50: 2750 nM
  TGI: 15.1 µM
RXF 393 renal
  GI50: 1240 nM
  TGI: 5.4 µM
IGROV1 ovarian
  GI50: 1360 nM
  TGI: 4.66 µM
SK-MEL-5 melanoma
  GI50: 1880 nM
  TGI: 3.74 µM
UACC-62 melanoma
  GI50: 1530 nM
  TGI: 3.64 µM
LOX IMVI melanoma
  GI50: 2900 nM
  TGI: 10.9 µM
SF-295 CNS
  GI50: 4.4 µM
  TGI: 16.1 µM
RPMI-8226 leukemia
  GI50: 412 nM
  TGI: 2010 nM
TK-10 renal
  GI50: 3.08 µM
  TGI: 14.9 µM
MCF7 breast
  GI50: 1050 nM
  TGI: 8.18 µM
HL-60(TB) leukemia
  GI50: 293 nM
  TGI: 1410 nM
NCI-H522 lung
  GI50: 643 nM
  TGI: 6.79 µM
A498 renal
  GI50: 13.3 µM
  TGI: 27.4 µM
OVCAR-8 ovarian
  GI50: 2930 nM
  TGI: 11.9 µM
PC-3 prostate
  GI50: 1460 nM
  TGI: 10.4 µM
KM12 colon
  GI50: 1720 nM
  TGI: 6.34 µM
BT-549 breast
  GI50: 2450 nM
  TGI: 6.55 µM
SF-539 CNS
  GI50: 2850 nM
  TGI: 11 µM
786-0 renal
  GI50: 5.43 µM
  TGI: 18.9 µM
HCT-15 colon
  GI50: 16.1 µM
  TGI: 30.5 µM
HCC-2998 colon
  GI50: 1310 nM
  TGI: 10.3 µM
